Two compounds from patent publication US7850970B2, “Inhibitors of serine protease activity and their use in methods and compositions for treatment of bacterial infections” (priority 2003, dated 2010) can be followed below.

“And” between values parts separate entries of the source, which are not always exact repeats. Equal values may be shown once. Residues, ends and D or L forms follow the SMILES beside them. *: point of attachment. CH2Cl = ClC*

In experiment [1] the test system is MAC (strain Mycobacterium avium 9141). As to the kind of experiment: MAC infection of human monocyte-derived macrophages, colony counts. It is filed as cell-based. The following applies: FIG. 1.
Experiment [2] has as its system TB (strain H37RV). Format: cell-based, m. tuberculosis. The note with it: AAT 5.0 mg/ml-exposed MDM; control MDM (no AAT) 20% and 17%.
The test system of experiment [3] is TB (strain H37RV). It is filed as cell-based, m. tuberculosis.
In experiment [4] the test system is MAC (strain Mycobacterium avium 9141). Put plainly: MAC infection of human monocyte-derived macrophages, direct observation and counting of infected cells. Format: cell-based. The following applies: AAT 5.0 mg/ml-exposed MDM, control MDM (no AAT) 17%.
For the next experiment, the system named is interleukin-1 beta. Put plainly: Stimulated interleukin-1 beta production in whole human blood. Format: cell-based. The note with it: whole human blood diluted 1:4, heat-killed Staphylococcus epidermidis 1:1000, 24 hrs, all concentrations tested, FIG. 5. Here is the method: Design: Venipuncture was performed on 3 healthy volunteers using a 21-gauge needle, and the venous blood was aspirated into a heparinized tube. Blood was then aliquoted into 6 milliliter polypropylene tubes and diluted 1:4 with sterile RPMI tissue culture medium alone (Control), diluted 1:4 in medium containing heat-killed Staphylococcus epidermidis at a final concentration of 1:1000 as a stimulus (Staph), or into tubes containing Staphylococcus epidermidis and alpha-1-antitrypsin (AAT, Aralast® from Baxter). All cultures were then incubated ×24 hrs at 37° C./5% CO2). Following incubation, the samples were centrifuged ×1,500 g, and the supernatants collected. Supernatants were assayed for interleukin-1 beta concentration using a validated electrochemiluminescence apparatus that quantifies cytokine proteins.

As to `CC(C)[C@H](NC(=O)[C@@H]1CCCN1C(=O)[C@H](C)NC(=O)[C@H](C)N)C(=O)CCl` [AAT mimic, ala-ala-pro-val-chloromethyl ketone, reference compound] (H-AAPV-CH2Cl), in experiment [1], the “effect on MAC infection of MDM” value is given as “confirm the AAT data”.
With α1-antitrypsin [AAT], the “percent of cells infected with m. tuberculosis” value in the experiment with TB (strain H37RV) [2] was 4% and 6%. Also, the “TB counts per ml” value with TB (strain H37RV) [3] (AAT-exposed MDM cultures, control MDM cultures 1.6×10^5 per ml) was 0.57×10^5 per ml. Moreover, the “inhibitory effect on cell-associated TB counts” value in the experiment with TB (strain H37RV) [3] (AAT-exposed versus control MDM cultures) was 64%. Moreover, the “percent of cells infected” value in experiment [4] is recorded as 10%. The “inhibition of infection of MDM with MAC (mean effect)” value in experiment [1] (4 separate experiments) is reported as “approximately 55%”. For the same compound, the “Staph-stimulated interleukin-1 beta production” value in the experiment with interleukin-1 beta was “significantly inhibited”.
